# According to PMC11182572, “Mining Bovine Milk Proteins for DPP-4 Inhibitory Peptides Using Machine Learning and Virtual Proteolysis” (Research, 2024):
# Where two headings read alike, the source gives them in different places. No end group written: not given here.
# Columns and labels:
# DPP-4 [1] = target: T1, DPP-4 (Homo sapiens, UniProt P27487); assay: DPP-4 inhibitory activity (Gly-Pro-p-nitroanilide substrate); type: biochemical; settings: for IC50: 25 μl sample + 25 μl Gly-Pro-p-nitroanilide (3.2 mM), preincubated 37 °C 10 min, 50 μl DPP-4 (0.02 U/ml), 60 min, 100 mM tris buffer (pH 7.6), absorbance at 405 nm
# T1 construct: purchased Sigma-Aldrich Co., St. Louis, MO, USA
# Procedure: Determination of DPP-4 inhibitory activity
# The DPP-4 inhibitory activity of the synthesized peptides was determined as previously described, with slight modifications. Briefly, 25 μl of the sample and 25 μl of Gly-Pro-p-nitroanilide (3.2 mM) were preincubated at 37 °C for 10 min before 50 μl of DPP-4 (0.02 U/ml) was added to the mixture (Sigma-Aldrich Co., St. Louis, MO, USA). After 60 min, the reaction was halted by adding 100 μl of 1 M sodium acetate solution. The absorbance at 405 nm was measured using a microplate reader (Thermo Fisher Scientific, Waltham, MA, USA). DPP-4 inhibition (DI) was calculated as follows: DI%=1−Asample−Asample blank/Apositive−Anegative×100% (5) where A(sample) represents the optical density of DPP-4 in the presence of both the substrate and peptide. A(sample blank) represents the optical density of the 100 mM tris buffer (pH 7.6). A(positive) represents the optical density of the enzyme and substrate in the absence of an inhibitor. A(negative) represents the optical density of the enzyme in the absence of substrate and inhibitor.
# DPP-4 [2] = target: T1, DPP-4; settings: methodologies differ among studies; cited from earlier work
# T1 sequence (P27487 whole entry, species assumed): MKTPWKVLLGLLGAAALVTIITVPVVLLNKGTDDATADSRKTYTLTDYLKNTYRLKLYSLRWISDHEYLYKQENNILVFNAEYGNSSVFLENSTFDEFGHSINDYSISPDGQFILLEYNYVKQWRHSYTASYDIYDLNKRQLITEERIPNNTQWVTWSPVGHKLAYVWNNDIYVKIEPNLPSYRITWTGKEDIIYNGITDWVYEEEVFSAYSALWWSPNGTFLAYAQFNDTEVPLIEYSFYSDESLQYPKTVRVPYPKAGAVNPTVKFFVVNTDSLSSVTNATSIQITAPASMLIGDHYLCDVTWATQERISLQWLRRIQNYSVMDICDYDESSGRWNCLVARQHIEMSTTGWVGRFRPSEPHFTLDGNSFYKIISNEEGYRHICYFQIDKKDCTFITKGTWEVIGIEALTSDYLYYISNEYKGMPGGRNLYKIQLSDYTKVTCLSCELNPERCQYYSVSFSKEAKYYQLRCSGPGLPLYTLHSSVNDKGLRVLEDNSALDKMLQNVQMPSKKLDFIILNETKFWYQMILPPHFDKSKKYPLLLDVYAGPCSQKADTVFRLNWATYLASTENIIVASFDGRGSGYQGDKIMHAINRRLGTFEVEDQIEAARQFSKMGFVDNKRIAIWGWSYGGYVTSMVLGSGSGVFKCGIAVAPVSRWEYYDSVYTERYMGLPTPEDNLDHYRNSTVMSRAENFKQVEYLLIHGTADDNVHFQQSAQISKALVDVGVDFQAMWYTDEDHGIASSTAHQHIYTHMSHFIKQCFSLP
IC50 (DPP-4 [1]) [µM],Substance,other results
–,"FVAPFPEV [peptide from α-S1-casein, pepsin (pH 1.3), pepsin (pH > 2); synthesized]",DPP-4 inhibitory effect (in words) (DPP-4 [1]; in vitro): poor inhibitory effect
645,GPVRGPF [GPVRGPF],–
1610,HPHPHL [HPHPHL],–
–,TPEVDDEALEK [peptide from previous study [6]],IC50 (DPP-4 [2]): 320 µM
